Assay results taken from US20130165450A1, “Novel Thiazol-Carboximide Derivatives as PDK1 Inhibitors” (priority 2010, published 2013).

These compounds were tested against T1, recombinant human PDK1 (amino acids 51-556) (Homo sapiens, UniProt O15530) (assay: PDK1 IMAP fluorescence polarization kinase assay). Settings: 10 nM PDK1, 100 nM peptide substrate, 100 nM PIFtide, 2.5 uM ATP, 1.5 hours; numeric values.
T1 construct: containing amino acids 51-556 of the human PDK1 enzyme; made in house
T1 sequence (O15530 51-556): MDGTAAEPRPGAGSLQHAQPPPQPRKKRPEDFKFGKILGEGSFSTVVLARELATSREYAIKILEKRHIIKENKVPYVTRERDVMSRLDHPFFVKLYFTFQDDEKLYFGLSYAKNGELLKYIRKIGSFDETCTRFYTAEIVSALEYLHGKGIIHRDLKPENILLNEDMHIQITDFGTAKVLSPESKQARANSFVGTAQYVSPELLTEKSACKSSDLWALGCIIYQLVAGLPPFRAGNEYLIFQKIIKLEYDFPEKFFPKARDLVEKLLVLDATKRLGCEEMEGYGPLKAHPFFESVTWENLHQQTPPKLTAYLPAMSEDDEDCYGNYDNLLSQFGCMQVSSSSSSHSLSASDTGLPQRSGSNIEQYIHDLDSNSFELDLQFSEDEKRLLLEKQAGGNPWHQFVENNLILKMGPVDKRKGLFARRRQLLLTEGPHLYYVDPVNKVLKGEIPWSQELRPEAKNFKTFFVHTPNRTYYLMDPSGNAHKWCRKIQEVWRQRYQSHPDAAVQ
Assay type: biochemical

Work on Nc1ccc(N2CCC[C@@H](N)C2)c(NC(=O)c2csc(-c3cnn(Cc4cccs4)c3)n2)c1 [Compound 1, N-[5-amino-2-(3(R)-amino-1-piperidinyl)phenyl]-2-[1-(2-thienylmethyl)-1H-pyrazol-4-yl]-4-thiazolecarboxamide] yielded an IC50 of 7 nM.

Same assay, conditions: 10 nM PDK1, 100 nM peptide substrate, 100 nM PIFtide, 2.5 uM ATP, 1.5 hours; rated A-D

First: Nc1ccc(N2CCC[C@@H](N)C2)c(NC(=O)c2csc(-c3cnn(Cc4ccccn4)c3)n2)c1 [Compound 13, N-[5-amino-2-(3(R)-amino-1-piperidinyl)phenyl]-2-[1-(2-pyridinylmethyl)-1H-pyrazol-4-yl]-4-thiazolecarboxamide]
Second: Nc1ccc(N2CC[C@@H](N)C2)c(NC(=O)c2csc(-c3cnn(Cc4ccccn4)c3)n2)c1 [Compound 29, N-[5-amino-2-(3(R)-amino-1-pyrrolidinyl)phenyl]-2-[1-(2-pyridinylmethyl)-1H-pyrazol-4-yl]-4-thiazolecarboxamide]
The IC50 of the first is lower: 1 to 50 nM for the first, 51 to 250 nM for the second.

Compared with CC(c1ccccc1)n1cc(-c2nc(C(=O)Nc3cc(N)ccc3N3CCC[C@@H](N)C3)cs2)cn1 (stereo partly drawn) [Compound 30, N-[5-amino-2-(3(R)-amino-1-piperidinyl)phenyl]-2-[1-(1-phenylethyl)-1H-pyrazol-4-yl]-4-thiazolecarboxamide], Nc1ccc(N2CCC[C@@H](N)C2)c(NC(=O)c2csc(-c3cnn(Cc4ccccc4)c3)n2)c1 [Compound 3, N-[5-amino-2-(3(R)-amino-1-piperidinyl)phenyl]-2-[1-(phenylmethyl)-1H-pyrazol-4-yl]-4-thiazolecarboxamide] is lower in IC50: 51 to 250 nM for the first, 1 to 50 nM for the second.

First: N[C@@H]1CCCN(c2c(F)cccc2NC(=O)c2csc(-c3cnn(CC4CCNCC4)c3)n2)C1 [Compound 47, N-[2-(3(R)-amino-1-piperidinyl)-3-fluorophenyl]-2-[1-(4-piperidinylmethyl)-1H-pyrazol-4-yl]-4-thiazolecarboxamide]
Second: N[C@@H]1CCCN(c2c(F)cccc2NC(=O)c2csc(-c3cnn(Cc4ccccn4)c3)n2)C1 [Compound 27, N-[2-(3(R)-amino-1-piperidinyl)-3-fluorophenyl]-2-[1-(2-pyridinylmethyl)-1H-pyrazol-4-yl]-4-thiazolecarboxamide]
The IC50 of the first is higher: over 1000 nM for the first, 51 to 250 nM for the second. The second is the more potent here.

Nc1ccc(N2CCC[C@@H](N)C2)c(NC(=O)c2csc(-c3cnn(Cc4cccnc4)c3)n2)c1 [Compound 18, N-[5-amino-2-(3(R)-amino-1-piperidinyl)phenyl]-2-[1-(3-pyridinylmethyl)-1H-pyrazol-4-yl]-4-thiazolecarboxamide] and Nc1ccc(N2CCC[C@@H](N)C2)c(NC(=O)c2csc(-c3cnn(CCc4ccccc4)c3)n2)c1 [Compound 17, N-[5-amino-2-(3(R)-amino-1-piperidinyl)phenyl]-2-[1-(2-phenylethyl)-1H-pyrazol-4-yl]-4-thiazolecarboxamide] fall in the same range of IC50: 1 to 50 nM for the first, 1 to 50 nM for the second.

N[C@@H]1CCCN(c2c(F)cccc2NC(=O)c2csc(-c3cnn(Cc4c(F)cccc4CO)c3)n2)C1 [Compound 46, N-[2-(3(R)-amino-1-piperidinyl)-3-fluorophenyl]-2-[1-[[2-fluoro-6-(hydroxymethyl)phenyl]methyl]-1H-pyrazol-4-yl]-4-thiazolecarboxamide] and N[C@@H]1CCCN(c2c(F)cccc2NC(=O)c2csc(-c3cnn(Cc4cccc(F)c4F)c3)n2)C1 [Compound 52, N-[2-(3(R)-amino-1-piperidinyl)-3-fluorophenyl]-2-[1-[(2,3-difluorophenyl)methyl]-1H-pyrazol-4-yl]-4-thiazolecarboxamide] fall in the same range of IC50: 51 to 250 nM for the first, 51 to 250 nM for the second.

First: Nc1ccc(N2CCC3(CC2)OCCO3)c(NC(=O)c2csc(-c3cnn(Cc4cccs4)c3)n2)c1 [Compound 34, N-[5-amino-2-(1,4-dioxa-8-azaspiro[4.5]dec-8-yl)phenyl]-2-[1-(2-thienylmethyl)-1H-pyrazol-4-yl]-4-thiazolecarboxamide]
Second: Nc1ccc(N2CCC3(CC2)OCCO3)c(NC(=O)c2csc(-c3cnn(Cc4cccc(F)c4)c3)n2)c1 [Compound 15, N-[5-amino-2-(1,4-dioxa-8-azaspiro[4.5]dec-8-yl)phenyl]-2-[1-[(3-fluorophenyl)methyl]-1H-pyrazol-4-yl]-4-thiazolecarboxamide]
The IC50 of the first is higher: 51 to 250 nM for the first, 1 to 50 nM for the second. The second is the more potent here.

Compared with NCC1CCN(c2ccc(N)cc2NC(=O)c2csc(-c3cnn(Cc4cccs4)c3)n2)CC1 [Compound 8, N-[5-amino-2-[4-(aminomethyl)-1-piperidinyl]phenyl]-2-[1-(2-thienylmethyl)-1H-pyrazol-4-yl]-4-thiazolecarboxamide], CCOC(=O)C1CCN(c2ccc(N)cc2NC(=O)c2csc(-c3cnn(Cc4cccs4)c3)n2)CC1 [Compound 12, ethyl 1-[4-amino-2-[[[2-[1-(2-thienylmethyl)-1H-pyrazol-4-yl]-4-thiazolyl]carbonyl]amino]phenyl]-4-piperidinecarboxylate] is higher in IC50: 1 to 50 nM for the first, 251 to 1000 nM for the second. The first is the more potent here.

First: NCC1CCN(c2c(F)cccc2NC(=O)c2csc(-c3cnn(Cc4cccs4)c3)n2)CC1 [Compound 6, N-[2-[4-(aminomethyl)-1-piperidinyl]-3-fluorophenyl]-2-[1-(2-thienylmethyl)-1H-pyrazol-4-yl]-4-thiazolecarboxamide]
Second: NCc1ccccc1Cn1cc(-c2nc(C(=O)Nc3cccc(F)c3N3CCC[C@@H](N)C3)cs2)cn1 [Compound 51, 2-[1-[[2-(aminomethyl)phenyl]methyl]-1H-pyrazol-4-yl]-N-[2-(3(R)-amino-1-piperidinyl)-3-fluorophenyl]-4-thiazolecarboxamide]
The IC50 of the first is lower: 51 to 250 nM for the first, 251 to 1000 nM for the second. The first is the more potent here.

N[C@@H]1CCCN(c2c(F)cccc2NC(=O)c2csc(-c3cnn(Cc4ccccc4-c4cn[nH]c4)c3)n2)C1 [Compound 50, N-[2-(3(R)-amino-1-piperidinyl)-3-fluorophenyl]-2-[1-[[2-(1h-pyrazol-4-yl)phenyl]methyl]-1H-pyrazol-4-yl]-4-thiazolecarboxamide] and N[C@@H]1CCCN(c2c(F)cccc2NC(=O)c2csc(-c3cnn(Cc4ccccc4SC(F)(F)F)c3)n2)C1 [Compound 37, N-[2-(3(R)-amino-1-piperidinyl)-3-fluorophenyl]-2-[1-[[2-[(trifluoromethyl)thio]phenyl]methyl]-1H-pyrazol-4-yl]-4-thiazolecarboxamide] cannot be ordered by IC50: over 1000 nM for the first, over 1000 nM for the second.

N[C@@H]1CCCN(c2c(F)cccc2NC(=O)c2csc(-c3cnn(CCCOc4ccccc4)c3)n2)C1 [Compound 43, N-[2-(3(R)-amino-1-piperidinyl)-3-fluorophenyl]-2-[1-(3-phenoxypropyl)-1H-pyrazol-4-yl]-4-thiazolecarboxamide] and N[C@@H]1CCCN(c2c(F)cccc2NC(=O)c2csc(-c3cnn(Cc4c(F)cccc4C(F)(F)F)c3)n2)C1 [Compound 35, N-[2-(3(R)-amino-1-piperidinyl)-3-fluorophenyl]-2-[1-[[2-fluoro-6-(trifluoromethyl)phenyl]methyl]-1H-pyrazol-4-yl]-4-thiazolecarboxamide] cannot be ordered by IC50: over 1000 nM for the first, over 1000 nM for the second.

Compared with Nc1ccc(N2CCC[C@@H](N)C2)c(NC(=O)c2csc(-c3cnn(Cc4ccc(F)c(F)c4)c3)n2)c1 [Compound 14, N-[5-amino-2-(3(R)-amino-1-piperidinyl)phenyl]-2-[1-[(3,4-difluorophenyl)methyl]-1H-pyrazol-4-yl]-4-thiazolecarboxamide], NCC1CCN(c2ccc(N)cc2NC(=O)c2csc(-c3cnn(Cc4ccccn4)c3)n2)CC1 [Compound 24, N-[5-amino-2-[4-(aminomethyl)-1-piperidinyl]phenyl]-2-[1-(2-pyridinylmethyl)-1H-pyrazol-4-yl]-4-thiazolecarboxamide] is higher in IC50: 1 to 50 nM for the first, 51 to 250 nM for the second. The first is the more potent here.

First: Nc1ccc(N2CCC3(CCCNC3)CC2)c(NC(=O)c2csc(-c3cnn(Cc4ccccn4)c3)n2)c1 [Compound 20, N-[5-amino-2-(2,9-diazaspiro[5.5]undec-9-yl)phenyl]-2-[1-(2-pyridinylmethyl)-1H-pyrazol-4-yl]-4-thiazolecarboxamide]
Second: O=C(Nc1ccccc1N1CCNCC1)c1csc(-c2cnn(Cc3cc(F)ccc3F)c2)n1 [Compound 39, 2-[1-[(2,5-difluorophenyl)methyl]-1H-pyrazol-4-yl]-N-[2-(1-piperazinyl)phenyl]-4-thiazolecarboxamide]
The IC50 of the first is lower: 51 to 250 nM for the first, 251 to 1000 nM for the second. The first is the more potent here.
